What was measured:
Format in all cases: cell-based
human TLR8 = molecular target: T1, human TLR8 (Homo sapiens, UniProt Q9NR97); assay: TLR8 inhibition reporter assay (HEK-Blue, SEAP); settings: HEK-Blue cells overexpressing human TLR8, R848 15.9 μM, 22 hour incubation
T1 construct: host or cells: HEK-Blue cells
T1 sequence (Q9NR97 27-1041): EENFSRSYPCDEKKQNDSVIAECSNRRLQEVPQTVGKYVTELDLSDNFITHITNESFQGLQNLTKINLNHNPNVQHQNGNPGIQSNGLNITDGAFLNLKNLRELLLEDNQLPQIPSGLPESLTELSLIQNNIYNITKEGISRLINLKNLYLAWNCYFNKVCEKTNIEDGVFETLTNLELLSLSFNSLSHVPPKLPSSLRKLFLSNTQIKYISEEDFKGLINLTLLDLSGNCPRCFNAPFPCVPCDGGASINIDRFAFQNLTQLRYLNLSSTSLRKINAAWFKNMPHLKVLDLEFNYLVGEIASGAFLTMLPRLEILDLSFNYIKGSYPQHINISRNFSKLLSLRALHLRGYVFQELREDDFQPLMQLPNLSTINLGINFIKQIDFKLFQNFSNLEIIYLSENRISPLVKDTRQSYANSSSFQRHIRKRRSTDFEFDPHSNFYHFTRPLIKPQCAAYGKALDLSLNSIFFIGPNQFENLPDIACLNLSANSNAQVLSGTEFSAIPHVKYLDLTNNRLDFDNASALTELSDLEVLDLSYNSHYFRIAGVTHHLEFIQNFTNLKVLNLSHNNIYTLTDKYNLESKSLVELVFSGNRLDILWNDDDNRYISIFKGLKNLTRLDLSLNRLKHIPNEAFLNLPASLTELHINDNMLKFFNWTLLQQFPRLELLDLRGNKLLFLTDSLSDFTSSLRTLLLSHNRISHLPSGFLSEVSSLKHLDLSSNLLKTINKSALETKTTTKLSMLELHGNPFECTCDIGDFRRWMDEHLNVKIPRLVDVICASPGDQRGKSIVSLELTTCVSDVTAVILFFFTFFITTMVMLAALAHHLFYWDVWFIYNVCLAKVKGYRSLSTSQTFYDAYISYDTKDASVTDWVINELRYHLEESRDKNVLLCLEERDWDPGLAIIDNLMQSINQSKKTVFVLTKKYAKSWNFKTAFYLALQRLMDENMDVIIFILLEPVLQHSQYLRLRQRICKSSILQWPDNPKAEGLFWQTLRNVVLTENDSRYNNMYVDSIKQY
Protocol: (§1) TLR7/8/9 Inhibition Reporter Assays
(§2) HEK-Blue™-cells (Invivogen) overexpressing human TLR7, TLR8 or TLR9 receptors were used for screening inhibitors of these receptors using an inducible SEAP (secreted embryonic alkaline phosphatase) reporter gene under the control of the IFN-β minimal promoter fused to five NF-κB and AP-1-binding sites. Briefly, cells are seeded into Greiner 384 well plates (15000 cells per well for TLR7, 20,000 for TLR8 and 25,000 for TLR9) and then treated with test compounds in DMSO to yield a final dose response concentration range of 0.05 nM-50 μM. After a 30 minute compound pre-treatment at room temperature, the cells are then stimulated with a TLR7 ligand (gardiquimod at a final concentration of 7.5 μM), TLR8 ligand (R848 at a final concentration of 15.9 μM) or TLR9 ligand (ODN2006 at a final concentration of 5 nM) to activate NF-κB and AP-1 which induce the production of SEAP. After a 22 hour incubation at 37° C., 5% CO2, SEAP levels are determined with the addition of HEK-Blue™ Detection reagent (Invivogen), a cell culture medium that allows for detection of SEAP, according to manufacturer's specifications. The percent inhibition is determined as the % reduction in the HEK-Blue signal present in wells treated with agonist plus DMSO alone compared to wells treated with a known inhibitor.

human TLR9 = molecular target: T2, human TLR9 (Homo sapiens, UniProt Q9NR96); assay: TLR9 inhibition reporter assay (HEK-Blue, SEAP); settings: HEK-Blue cells overexpressing human TLR9, ODN2006 5 nM, 22 hour incubation
T2 construct: host or cells: HEK-Blue cells
T2 sequence (Q9NR96 26-1032): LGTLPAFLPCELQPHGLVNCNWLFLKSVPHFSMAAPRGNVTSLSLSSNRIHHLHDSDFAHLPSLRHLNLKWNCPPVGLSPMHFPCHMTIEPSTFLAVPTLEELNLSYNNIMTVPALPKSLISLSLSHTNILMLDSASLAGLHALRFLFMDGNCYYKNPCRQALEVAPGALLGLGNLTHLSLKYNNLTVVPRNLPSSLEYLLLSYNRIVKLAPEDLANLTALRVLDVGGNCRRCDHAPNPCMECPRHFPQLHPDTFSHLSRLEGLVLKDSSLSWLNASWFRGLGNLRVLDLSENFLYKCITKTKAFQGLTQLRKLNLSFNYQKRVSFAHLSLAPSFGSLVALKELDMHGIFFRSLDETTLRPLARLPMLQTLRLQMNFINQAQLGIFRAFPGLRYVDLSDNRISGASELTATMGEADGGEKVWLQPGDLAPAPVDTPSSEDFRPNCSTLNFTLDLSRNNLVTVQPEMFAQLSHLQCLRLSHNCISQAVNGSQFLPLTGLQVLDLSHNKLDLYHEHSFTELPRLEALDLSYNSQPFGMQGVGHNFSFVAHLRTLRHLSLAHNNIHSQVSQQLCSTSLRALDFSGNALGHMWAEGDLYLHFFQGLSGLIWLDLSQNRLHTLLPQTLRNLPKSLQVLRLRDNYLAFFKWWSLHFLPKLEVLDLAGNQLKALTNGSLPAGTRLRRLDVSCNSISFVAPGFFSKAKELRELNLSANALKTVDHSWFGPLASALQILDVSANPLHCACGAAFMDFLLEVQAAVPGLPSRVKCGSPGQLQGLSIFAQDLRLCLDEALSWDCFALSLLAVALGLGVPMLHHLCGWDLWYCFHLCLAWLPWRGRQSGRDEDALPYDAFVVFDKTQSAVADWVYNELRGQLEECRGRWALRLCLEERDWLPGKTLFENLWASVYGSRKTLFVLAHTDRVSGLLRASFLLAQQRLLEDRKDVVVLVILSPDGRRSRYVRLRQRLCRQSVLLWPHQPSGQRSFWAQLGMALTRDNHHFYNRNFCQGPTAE
Protocol: as §1, §2

human TLR7 = molecular target: T3, human TLR7 (Homo sapiens, UniProt Q9NYK1); assay: TLR7 inhibition reporter assay (HEK-Blue, SEAP); settings: HEK-Blue cells overexpressing human TLR7, gardiquimod 7.5 μM, 22 hour incubation
T3 construct: host or cells: HEK-Blue cells
T3 sequence (Q9NYK1 27-1049): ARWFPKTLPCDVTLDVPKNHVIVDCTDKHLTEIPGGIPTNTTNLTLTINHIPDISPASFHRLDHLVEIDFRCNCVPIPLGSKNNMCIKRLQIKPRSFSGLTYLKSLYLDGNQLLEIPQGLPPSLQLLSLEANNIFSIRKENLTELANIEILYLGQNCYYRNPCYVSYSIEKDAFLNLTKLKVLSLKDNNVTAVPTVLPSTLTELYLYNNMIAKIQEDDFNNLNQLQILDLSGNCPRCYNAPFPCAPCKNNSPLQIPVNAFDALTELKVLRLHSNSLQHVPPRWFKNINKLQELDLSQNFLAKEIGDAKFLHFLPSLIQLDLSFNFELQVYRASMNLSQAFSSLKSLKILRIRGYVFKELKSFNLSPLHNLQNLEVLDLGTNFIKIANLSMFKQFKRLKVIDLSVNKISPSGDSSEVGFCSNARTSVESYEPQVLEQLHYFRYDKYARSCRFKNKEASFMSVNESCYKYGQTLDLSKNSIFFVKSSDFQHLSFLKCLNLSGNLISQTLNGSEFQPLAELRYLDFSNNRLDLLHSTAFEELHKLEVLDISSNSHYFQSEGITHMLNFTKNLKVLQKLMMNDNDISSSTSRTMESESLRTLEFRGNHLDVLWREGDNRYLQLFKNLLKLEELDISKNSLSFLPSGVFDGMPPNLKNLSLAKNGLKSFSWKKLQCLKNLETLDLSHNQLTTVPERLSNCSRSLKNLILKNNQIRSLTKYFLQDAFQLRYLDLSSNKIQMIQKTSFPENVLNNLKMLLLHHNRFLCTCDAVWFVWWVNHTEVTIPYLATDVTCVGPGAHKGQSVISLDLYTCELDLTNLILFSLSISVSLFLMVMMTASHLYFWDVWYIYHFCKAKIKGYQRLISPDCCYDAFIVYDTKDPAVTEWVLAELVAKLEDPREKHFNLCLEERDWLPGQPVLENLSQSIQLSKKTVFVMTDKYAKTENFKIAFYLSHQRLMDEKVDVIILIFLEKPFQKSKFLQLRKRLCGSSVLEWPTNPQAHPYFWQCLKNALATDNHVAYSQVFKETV
Protocol: as §1, §2

IC50 (human TLR8) [nM] | IC50 (human TLR9) [µM] | IC50 (human TLR7) [nM] | Compound
6.4 | 0.381 | 1.2 | 1-(4-(3-isopropyl-2-(8-methoxy-5-methyl-[1,2,4]triazolo[4,3-a)pyridin-6-yl)-1H-indol-5-yl)piperidin-1-yl)-2-methylpropan-2-ol [Example 62]
8.2 | 5.46 | 3.9 | Cc1c(-c2[nH]c3ccc(C4CCN(C5CCOC5)CC4)cc3c2C(C)C)cn2cnnc2c1C (single isomer, unassigned) [Example 102, 6-(3-isopropyl-5-(1-(tetrahydrofuran-3-yl)piperidin-4-yl)-1H-indol-2-yl)-7,8-dimethyl-[1,2,4]triazolo[4,3-a]pyridine]
11.7 | 10.2 | 5.1 | Cc1c(-c2[nH]c3ccc(C4CCN(C5CCOC5)CC4)cc3c2C(C)C)cn2cnnc2c1C (single isomer, unassigned) [Example 103, 6-(3-isopropyl-5-(1-(tetrahydrofuran-3-yl)piperidin-4-yl)-1H-indol-2-yl)-7,8-dimethyl-[1,2,4]triazolo[4,3-a]pyridine]
19.4 | 6.63 | 6.3 | Cc1c(-c2[nH]c3ccc(C4CC(C)N(CCS(C)(=O)=O)C(C)C4)cc3c2C(C)C)cn2cnnc2c1C (single isomer, unassigned) [Example 110, 6-(5-(2,6-dimethyl-1-(2-(methylsulfonyl)ethyl)piperidin-4-yl)-3-isopropyl-1H-indol-2-yl)-7,8-dimethyl-[1,2,4]triazolo[4,3-a]pyridine]
113 | 19.2 | 23.9 | Cc1c(-c2[nH]c3ccc(C4CC(C)N(CCS(C)(=O)=O)C(C)C4)cc3c2C(C)C)cn2cnnc2c1C (single isomer, unassigned) [Example 111, 6-(5-(2,6-dimethyl-1-(2-(methylsulfonyl)ethyl)piperidin-4-yl)-3-isopropyl-1H-indol-2-yl)-7,8-dimethyl-[1,2,4]triazolo[4,3-a]pyridine]
59.6 | 4.83 | 2.4 | Cc1c(-c2[nH]c3ccc(C4CC(C)N(CC5(C)COC5)C(C)C4)cc3c2C(C)C)cn2cnnc2c1C (single isomer, unassigned) [Example 113, 6-(5-(2,6-dimethyl-1-((3-methyloxetan-3-yl)methyl)piperidin-4-yl)-3-isopropyl-1H-indol-2-yl)-7,8-dimethyl-[1,2,4]triazolo[4,3-a]pyridine]
226 | 7.32 | 13.7 | Cc1c(-c2[nH]c3ccc(C4CC(C)N(CC5(C)COC5)C(C)C4)cc3c2C(C)C)cn2cnnc2c1C (single isomer, unassigned) [Example 114, 6-(5-(2,6-dimethyl-1-((3-methyloxetan-3-yl)methyl)piperidin-4-yl)-3-isopropyl-1H-indol-2-yl)-7,8-dimethyl-[1,2,4]triazolo[4,3-a]pyridine]

Compound | IC50 (human TLR8) [nM] | IC50 (human TLR9) [µM] | IC50 (human TLR7) [nM]
Cc1c(-c2[nH]c3ccc(C4C[C@H]5CC[C@@H](C4)N5)cc3c2C(C)C)cn2cnnc2c1C (single isomer, unassigned) [Example 116, 6-(5-(8-azabicyclo[3.2.1]octan-3-yl)-3-isopropyl-1H-indol-2-yl)-7,8-dimethyl-[1,2,4]triazolo[4,3-a]pyridine] | 102 | 1.11 | 9.9
Cc1c(-c2[nH]c3ccc(C4C[C@H]5CC[C@@H](C4)N5)cc3c2C(C)C)cn2cnnc2c1C (single isomer, unassigned) [Example 117, 6-(5-(8-azabicyclo[3.2.1]octan-3-yl)-3-isopropyl-1H-indol-2-yl)-7,8-dimethyl-[1,2,4]triazolo[4,3-a]pyridine] | 494 | 6.09 | 31.6
Cc1c(-c2[nH]c3ccc(C4C[C@H]5CC[C@@H](C4)N5CC(=O)N(C)C)cc3c2C(C)C)cn2cnnc2c1C (single isomer, unassigned) [Example 118] | 159 | 5.46 | 8.7
Cc1c(-c2[nH]c3ccc(C4C[C@H]5CC[C@@H](C4)N5CC(=O)N(C)C)cc3c2C(C)C)cn2cnnc2c1C (single isomer, unassigned) [Example 119] | 103 | 1.02 | 12.9
Cc1c(-c2[nH]c3ccc(C4C[C@H]5CC[C@@H](C4)N5CC4(C)COC4)cc3c2C(C)C)cn2cnnc2c1C (single isomer, unassigned) [Example 120] | 45.9 | 3.8 | 6.7

From US11130756B2, “[1,2,4]Triazolo[4,3-A]pyridinyl substituted indole compounds” (BRISTOL-MYERS SQUIBB COMPANY, priority 2017, dated 2021)
